This data set in a line: In-vivo pharmacokinetics in rats, oral administration. More on the design: species or system male SD rats. The conditions noted are these: for AUC(0-inf) / Cmax / half-life: male, SD, rat, oral 10 mg/kg, plasma; for F: oral 10 mg/kg vs intravenous 1 mg/Kg. As to the method:
In this experimental example, the in-vivo pharmacokinetic evaluation was made for rats by intravenous injection and oral administration.
Experimental methods and conditions: male SD rats, 6 to 8 weeks old; all animals had free access to food and water; 5 min, 15 min, 30 min, 1 hr, 2 hr, 4 hr, 8 hr, 24 hr and 48 hr after the rats were subjected to a single intravenous injection of 1 mg/Kg of a compound to be tested (solvent 5% DMSO/15% Solutol/80% Saline), or 15 min, 30 min, 1 hr, 2 hr, 4 hr, 6 hr, 8 hr, 24 hr and 48 hr after the rats were subjected to oral intragastric administration of 10 mg/kg (solvent 5% DMSO/10% Solutol/85% Saline), blood was collected from orbits, not less than 50 μL of each sample was collected, and heparin sodium was used for anticoagulation; the collected samples were placed on ice, and the plasma was centrifugally separated within 1 hour for testing. The drug concentration in the plasma was detected by liquid chromatography tandem mass spectrometry (LC/MS/MS), and the pharmacokinetic parameters were calculated by Phoenix WinNonlin software. Embodiment 82 in CN110612294 A was taken as a control sample 1.

In the case of `CC1(C)[C@H](NC(=O)c2ccc(N3CCC(CN4CCN(c5ccc6c(=O)n(C7CCC(=O)NC7=O)nc(F)c6c5)CC4)CC3)cc2)C(C)(C)[C@H]1Oc1ccc(C#N)c(Cl)c1` (stereo partly drawn) [Compound 29], the area under the curve AUC(0-inf) (usually the area under the concentration-time curve extrapolated to infinity) amounted to 6200 ng·h/mL, the highest level (Cmax) was 253 ng/mL, the half-life (commonly the time in which the quantity being followed falls by half) was 13.4 h and the F was determined as 11.9%.
`CC1(C)[C@H](NC(=O)c2ccc(N3CCC(CN4CCN(c5ccc6c(=O)n([C@H]7CCC(=O)NC7=O)ncc6c5)CC4)CC3)cc2)C(C)(C)[C@H]1Oc1ccc(C#N)c(Cl)c1` [Compound 28A]: the AUC(0-inf) turned out to be 3210 ng·h/mL, the peak level (Cmax) was 173 ng/mL, the half-life is 8.28 h and the F is given as 5.13%.
On the same counts, the results for `CC1(C)[C@H](NC(=O)c2ccc(N3CCC(CN4CCN(c5ccc6c(=O)n(C7CCC(=O)NC7=O)ncc6c5)CC4)CC3)cc2)C(C)(C)[C@H]1Oc1ccc(C#N)c(Cl)c1` (stereo partly drawn) [Compound 1] are 2650 ng·h/mL, 147 ng/mL, 7.62 h and 11.9%.
